Test results: publication PMC9889749, “CID12261165, a flavonoid compound as antibacterial agents against quinolone-resistant Staphylococcus aureus” (Scientific Reports, 2023)

Experiments:
Format in all cases: biochemical
[1] = target: T1, DNA gyrase (GyrA S84L + wild-type GyrB) (Staphylococcus aureus, UniProt Q932M0); assay: in vitro DNA cleavage assay and DNA supercoiling assay with recombinant gyrase
T1 construct: GyrA(S84L) from strain Mu50; with GyrB

[2] = target: T2, DNA gyrase (wild-type GyrA + GyrB) (Staphylococcus aureus, UniProt P20831); assay: as above
T2 construct: wild-type GyrA from strain FDA209P; with GyrB

[3] = target: T3, topoisomerase IV (wild-type ParC) (Staphylococcus aureus, UniProt Q2FYS4); assay: in vitro DNA cleavage assay with recombinant topoisomerase IV
T3 construct: wild-type ParC from strain FDA209P; with ParE

SMILES	IC50 [1] [µg/mL]	in vitro DNA cleavage assay and DNA supercoiling assay with recombinant gyrase [2]	IC50 [3] [nM]
COc1ccc2c(=O)cc(-c3ccc(O)c(OC)c3)oc2c1 [CID12261165]	4	–	–
C[C@H]1COc2c(N3CCN(C)CC3)c(F)cc3c(=O)c(C(=O)O)cn1c23 [Levofloxacin]	–	using levofloxacin as a compound of interest, failure of DNA supercoiling activity was decreased upon acquisition of S84L mutation	1380
